Molecules are shown by their SMILES.

Data on 2 molecules can be found in patent US20240298601A1, “SESAME PLANTS RESISTANT TO ACETOLACTATE SYNTHASE-INHIBITING HERBICIDES, COMPOSITIONS AND METHODS FOR PRODUCING SAME” (Yissum Research Development Company of The Hebrew …, priority 2021, published 2024).

Assay [1] deals with wild type (S-416) sesame plants. The assay is described as follows: Herbicides dose-response assay (post-emergence, pots), wild type. The conditions noted are these: for ED50 WT: herbicide rate reducing plant growth (shoot DW) by 50%, 16 DAT, sprayed at two true leaves, n=5. Type of assay: in vivo, Sesamum indicum.
The test system of assay [2] is hybrid (F1) plants (SiRM x WT). The assay is described as follows: Physiological characterization of F1 hybrid plants under Imazamox. It counts as in vivo, Sesamum indicum. The conditions noted are these: Imazamox 48 g a.i. h^−1. As to the method: (§1) A cross between SiRM (♂) and the WT (♀) was made to produce F1 seeds. […] The pots were placed in a growth chamber under long-day conditions (16/8 light/dark and 32/25° C.). […] Plants were characterized daily for canopy coverage (Canopeo software, Oklahoma State University, USA; Patrignani and Ochsner, 2015. Agronomy Journal, 107:2312-2320) and gas exchange (IRGA 6800; Li-Cor, Lincoln, Nebraska, USA), over the next 11 days. At the end of the experiment, 21 DAT, the aboveground material was harvested, oven-dried (80° C., 48 h), and weighed to obtain shoot DW.

The subject of another assay is WT (S-416) plants. The assay is described as follows: Physiological characterization under Imazamox, WT parental line. It counts as in vivo, Sesamum indicum. The conditions noted are these: Imazamox 48 g a.i. h^−1. As for the experimental part: as §1
Assay [3] deals with SiRM plants. The assay is described as follows: Physiological characterization under Imazamox, SiRM parental line. It counts as in vivo, Sesamum indicum. The conditions noted are these: Imazamox 48 g a.i. h^−1. As for the experimental part:
as §1

For assay [4], the system named is Amaranthus palmeri. The assay can be described thus: Imazamox post-emergence field experiment, weed control. It counts as in vivo. The conditions noted are these: Imazamox 40 g a.i. h^−1, non-treated ~12 plants m^−1. As to the method:
The experiment was conducted in the Experimental Farm of the Hebrew University of Jerusalem in Rehovot, Israel ([…]; 54 m above sea level). The soil at this location is brown-red, degrading, sandy soil (Rhodoxeralf), composed of 76% sand, 8% silt, and 16% clay. […] Each plot consisted of a 5-meter row, with a sowing density of 7-plants m^−1 (n=6). At the end of the season, the survival rate was analyzed (number of plants per plot) and the plants in the plot were harvested. Samples were threshed using a laboratory thresher (Wintersteiger AG LD 350, Austria) and after sifting, the seeds were weighed to obtain seed yield.
To test the efficiency of Imazamox for weed control, Amaranthus palmeri was used as a model. Seeds of A. palmeri were sown (20-seeds m-1) as competitor weeds alongside the two sesame lines described above. As a negative control, plots that were not treated were used. At the end of the experiment, the number of A. palmeri plants per plot was counted.

The subject of the next assay is WT (S-416) sesame. The assay can be described thus: Imazamox post-emergence field experiment, WT sesame. Type of assay: in vivo, Sesamum indicum. The conditions noted are these: Imazamox 40 g a.i. h^−1.
Assay [5] deals with SiRM plants. The assay can be described thus: Imazamox post-emergence field experiment, SiRM sesame. It counts as in vivo, Sesamum indicum.
A further assay concerns WT plants (S-416). The assay can be described thus: Imazamox spraying for resistance validation, WT. It counts as in vivo, Sesamum indicum. The conditions noted are these: Imazamox 48 g a.i. ha^−1; seven days after spraying.
The test system of assay [6] is SiRM plants (mutant SiALS Ala188Val). The conditions noted are these: for ED50 SiRM: herbicide rate reducing plant growth (shoot DW) by 50%, 16 DAT, n=5, calculated from fitted curve, for Imazamox above the tested rates; for RI (resistance index): resistance/susceptible ratio of the ED50 (SiRM vs WT).
The next assay concerns mutant plants (SiRM). The assay can be described thus: Imazamox spraying for resistance validation, M3 mutant plants. The conditions noted are these: Imazamox 48 g a.i. ha^−1; seven days after spraying.
Assay [7] concerns WT plants. The assay is described as follows: Field observation after Imazapic recommended dose, WT. It counts as in vivo, Sesamum indicum. The conditions noted are these: Imazapic 48 g a.i. h^−1.
In assay [8] the test system is SiRM plants. The assay is described as follows: Field observation after Imazapic recommended dose, SiRM. It counts as in vivo, Sesamum indicum. The conditions noted are these: Imazapic 48 g a.i. h^−1.
Assay [9] deals with WT plants. The assay can be described thus: Imazapic pre-emergence pot experiment, WT. Type of assay: in vivo, Sesamum indicum.
The subject of assay [10] is SiRM plants. The assay can be described thus: Roots development under increasing dosages of Imazapic. The conditions noted are these: pre-emergence; 24, 48, 96 and 192 g a.i. ha^−1; sandy soil; 14 DAT. It counts as in vivo, Sesamum indicum.
A further assay concerns Abutilon Theophrastus. The assay can be described thus: 2021 field trial, Imazapic pre-emergence, weed control. It counts as in vivo. The conditions noted are these: pre-emergence Imazapic 48 g a.i. ha^−1; field 2021. As for the experimental part:
(§2) An additional field experiment was conducted during the summer of 2021 at the Experimental Farm of the Hebrew University of Jerusalem, Rehovot, Israel. A split-plot random block design with six replicates was applied. Treatments included: weed-free plots (i.e., manual weeding), untreated control (i.e., herbicide-free treatment) and application of Imazapic (48 g a.i. ha^−1) pre-germination. The plot size was 3.6 m×0.8 m (10 cm between plants) with two rows per plot. To evaluate the efficacy of weed control, two weeds were sown on the sesame sowing lines (Amaranthus Palmeri, 500 seeds per plot, and Abutilon Theophrastus, 70 seeds per plot). Phenological characterization was conducted during the growing season for the flowering date, the number of brunches per plant and the height to the first capsule. At the end of the growing season, the number of weeds per plot was counted and weeds were harvested for dry weight measurements. Sesame plants were harvested 1 m from the middle of the plot, samples were threshed using a laboratory thresher (Wintersteiger AG LD 350, Austria), and after sifting, the seeds were weighed to obtain seed yield.

The test system of assay [11] is Amaranthus palmeri. The description is as above. Type of assay: in vivo. The conditions noted are these: pre-emergence Imazapic 48 g a.i. ha^−1; field 2021. As for the experimental part:
as §2

Assay [12] concerns resistant plants of the invention (SiRM). The assay can be described thus: 2021 field trial, Imazapic pre-emergence, sesame performance. The conditions noted are these: pre-emergence Imazapic 48 g a.i. ha^−1. It counts as in vivo, Sesamum indicum. As to the method:
as §2

Assay [13] deals with SiRM plants. The conditions noted are these: pre-emergence.

Excerpt for mutant plants (SiRM): Genomic DNA was extracted using the CTAB protocol, with modification for sesame as described before (Teboul et al., 2020. Genes, 11, 1221). To test possible mutation(s) in the SiALS gene, a targeted sequencing was applied using four primer pairs covering the whole gene sequence (Table 1) according to the sequenced sesame genome (Zhongzhi No. 13; Wang et al., 2014. Genome Biology, 15:1-13). The gene was amplified, and PCR products were sequenced (HUJI genome center, Israel). Sequence alignment was performed using the Clustal Omega tool (Madeira et al., 2019. Nucleic Acids Research, 47:636-641).

On to `COCc1cnc(C2=NC(C)(C(C)C)C(=O)N2)c(C(=O)O)c1` (stereo not drawn) [Imazamox, 5-(methoxymethyl)-2-(4-methyl-5-oxo-4-propan-2-yl-1H-imidazol-2-yl) pyridine-3-carboxylic acid], for which, in assay [1], the “ED50 WT” value is recorded as 18 g a.i. ha^−1. For the same molecule, in [1] (post-emergence dose-response), the “dose at which WT plants already exhibited visual symptoms and reduced shoot DW” value is 6 g a.i. ha^−1. Besides, the “recovery of assimilation, hybrid plants” value in assay [2] was “after six days they fully recovered”. For the same molecule, in assay [2] (21 DAT), the “reduction in plant height, hybrid plants” value was about 40% and the “reduction in shoot DW, hybrid plants” value is given as about 35%. Besides, the “nodes to the first flower, hybrid plants treated” value in assay [2] (UTC 5.6) turned out to be 11.4 nodes. In [2] (UTC 8.0), the “nodes length, hybrid plants treated” value came to 2.4 cm. For the same molecule, the “height of first flower bud, hybrid plants treated” value in assay [2] (UTC 44.6) came out at 27.6 cm. Moreover, the “state of WT plants at the end of the experiment” value in the assay on WT (S-416) plants (21 DAT) is recorded as “fully eradicated”. For the same molecule, the “assimilation rate of WT” value in the assay on WT (S-416) plants (after 48 h) is reported as under 20%. Also, in the assay with SiRM plants [3] (21 DAT), the “state of SiRM plants at the end of the experiment” value is “showed no effect of Imazamox treatment”. In addition, the “recovery of assimilation, SiRM” value in the assay on SiRM plants [3] (after 48 h) was “recover completely and did not differ from the UTC plants”. Moreover, the “number of A. palmeri plants” value with Amaranthus palmeri [4] is listed as ~0 A. palmeri plants per meter plot. The “reduction in WT sesame stand” value in the assay with WT (S-416) sesame (field, P<0.0001) was found to be 75%. In addition, the “seed yield per plant, WT” value in the assay with WT (S-416) sesame (weed-free control 3.6, P=0.0015) is on record as 0.93 g per plant. The “seed yield per plot, WT” value with WT (S-416) sesame (weed-free control 19, P=0.0002) turned out to be 1.6 g. Moreover, the “seed yield per plot, SiRM” value in the assay on SiRM plants [5] (Imazamox 40 g a.i. h^−1, control 16.7, P=0.02) came to 31.5 g. Also, the “effect on the SiRM plots stand” value in the assay with SiRM plants [5] (Imazamox 40 g a.i. h^−1, field) was “no significant effect”. Besides, the “seed yield per plant, SiRM” value in the assay with SiRM plants [5] (Imazamox 40 g a.i. h^−1, weed-free control 2.88, P=0.011) is reported as 6.05 g per plant. The “yield of SiRM compared to the corresponding weed-free UTC” value in the assay on SiRM plants [5] (field conditions, post-emergence) is “two-fold greater yield”. The “visual symptoms, WT” value with WT plants (S-416) is “reduced growth and meristem damages”. Besides, the “increment in shoot DW compared with untreated control plants” value in assay [6] (SiRM, low doses of 3, 6 and 12 g a.i. h^−1) came out at 50%. In assay [6], the “ED50 SiRM” value is on record as 823 g a.i. ha^−1 and the “RI (resistance index)” value amounted to 45. In addition, the “visual symptoms, SiRM” value in the assay on mutant plants (SiRM) is recorded as “did not display any visual symptoms”.

Consider `Cc1cnc(C2=NC(C)(C(C)C)C(=O)N2)c(C(=O)O)c1` (stereo not drawn) [Imazapic, 5-methyl-2-(4-methyl-5-oxo-4-propan-2-yl-1H-imidazol-2-yl) pyridine-3-carboxylic acid], for which the “reduction in growth of WT” value in [1] (at 6 g a.i. h^−1, P=0.0055) is on record as 18%. Further, the “ED50 WT” value in assay [1] came to 236 g a.i. ha^−1. The “state of WT plants in the field” value with WT plants [7] is “dead already 10 DAT”. For the same molecule, in the assay on SiRM plants [8], the “state of SiRM plants in the field” value was “only slightly affected and showed a five-day delay in shoot development and flowering time”. Besides, in the assay on WT plants [9] (144 g a.i. h^−1), the “development of WT plants” value was “fully controlled and did not develop beyond the growth of the cotyledons”. Besides, the “canopy coverage, WT” value in the assay with WT plants [9] (144 g a.i. h^−1, 14 days after sowing, control 2.23, P=0.0008) is on record as 0.27 % of coverage. For the same molecule, the “root length, WT” value with WT plants [9] (144 g a.i. h^−1, control 82) is on record as 5 mm. For the same molecule, the “root volume, SiRM” value in the assay on SiRM plants [10] is “didn't show any significant differences in root volume”. Also, the “control of Abutilon” value with Abutilon Theophrastus is “didn't develop beyond the cotyledons”. Also, the “control of A. Palmeri” value with Amaranthus palmeri [11] was “didn't emerge (full-control)”. For the same molecule, in [12], the “height to the first capsule” value is listed as “reduced height to the first capsule”. For the same molecule, the “effect on growth of the resistant plants” value in [12] (compared with weed-free control) was “no deleterious effects”. For the same molecule, the “rate at which SiRM exhibited severe damage symptoms” value in assay [6] (16X) is 768 g a.i. h^−1. In addition, in assay [6], the “ED50 SiRM” value is 563 g a.i. ha^−1 and the “RI (resistance index)” value is given as 2.4. Moreover, in assay [6] (post-emergence dose-response), the “dose up to which SiRM plants were not affected” value is at most 96 g a.i. h^−1. Also, the “survival rate, SiRM” value in the assay on SiRM plants [13] (48, 96 and 144 g a.i. h^−1, clay soil) is reported as 100%. In addition, the “development of SiRM plants” value in the assay on SiRM plants [13] (144 g a.i. h^−1) is given as “developed normally without any visual differences compared to the untreated control”. Also, the “canopy coverage, SiRM” value with SiRM plants [13] (144 g a.i. h^−1, 14 days after sowing) is on record as “maintained similar values”. For the same molecule, in the assay on SiRM plants [13] (144 g a.i. h^−1, control 72, P=0.106), the “root length, SiRM” value worked out at 85 mm.
